Test results: patent US11066379B2 (THE TEXAS A&M UNIVERSITY SYSTEM, priority 2018, dated 2021)
Several values for one entry are separate records, joined by “and”; a condition that tells them apart may be missing. Equal values may be shown once. Read-outs that look alike come from different tables or passages of the source.

Columns and labels:
SH-SY5Y cells [1] = assay: Neuroprotection against H2O2 toxicity, cell viability by MTT; format: cell-based, human; conditions: 150 μM H2O2 co-treatment 6 h; 0.01, 0.1 and 1 μM
Description: (§1) SH-SY5Y cells were seeded in 96-well plates at a density of 2.5×10^5 cells/mL and allowed to adhere for 24 h. At first, cells were treated only with compounds at concentrations ranging from 10-0.01 μM for 24 h to determine their possible cytotoxic effects. Experiments were carried out three times. For neuroprotective experiments, cells were treated with compounds at non-toxic concentrations (1 μM→1 nM) and 150 μM H2O2 for 6 h. Briefly, cells were washed three times with saline solution and 200 μL of MTT (500 μg/mL) dissolved in saline buffer were added to each well. Following 1 h of incubation at 37° C., the cells were disaggregated with sodium dodecyl sulphate at 5%. Absorbance of formazan crystals was measured at 595 nm with a spectrophotometer plate reader. Saponin was used as death control and its absorbance was subtracted from the other data. All experiments were performed four times.

SH-SY5Y cells [2] = assay: Cellular toxicity in SH-SY5Y cells (MTT, 24 h); format: cell-based; conditions: for cytotoxicity toward SH-SY5Y cells: 10-0.01 μM, in words; for IC50: Homo sapiens, SH-SY5Y, read-out: IC50 (cellular toxicity)
From the text: The MTT (3-[4,5-dimethylthiazol-2-yl]-2,5-diphenyltetrazoliumbromide) assay was used to determine the cytotoxicity of gracilin derivatives in T lymphocytes (Burton, J. D. Methods Mol. Med., 2005, 110, 69-78) and SH-SY5Y cells and the protective effect of these compounds against H2O2 insult in neuroblastoma cells as previously described (Leiros, M., Alonso, E., Sanchez, J. A., Rateb, M. E., Ebel, R., Houssen, W. E., Jaspars, M., Alfonso, A. and Botana, L. M. ACS Chem. Neurosci., 2014, S, 71-80). Human T lymphocytes were cultured in 24 well plates at the concentration of 2.5×10^6 cells/mL and exposed to different compound concentrations (0.01, 0.1, 1 and 10 μM) added to the culture medium. Human T cells were maintained in the presence of the pure compound at 37° C. in humidified 5% CO2/95% air atmosphere for 48 h.
as §1, with “5%.” for “5%. Absorbance of formazan crystals was measured at 595 nm with a spectrophotometer plate reader. Saponin was used as death control and its absorbance was subtracted from the other data. All experiments were performed four times.”
Absorbance of formazan crystals was measured at 595 nm with a spectrophotometer plate reader. Saponin was used as death control and its absorbance was subtracted from the other data. All experiments were performed four times.

SH-SY5Y cells [3] = assay: Glutathione assay (Thiol Tracker Violet) after H2O2; format: cell-based, human; conditions: 150 μM H2O2 co-treatment 6 h, two or more concentrations
Description: Glutathione (GSH) levels were determined using Thiol Tracker Violet dye, which reacts with reduced thiols in cells. Reduced glutathione represents the majority of intracellular free thiols, so this probe can be used to estimate its levels in cells. Measurements were performed following manufacturer's protocol. Cells were seeded in 96-well plates at 2.5×10^5 cells/mL for 24 h and treated with compounds at various concentrations (1 μM→1 nM) and 150 μM H2O2. After 6 h, SH-SY5Y cells were washed twice with PBS and loaded with 100 μL of prewarmed Thiol Tracker Violet dye (10 μM) for 30 min at 37° C. The fluorescence was measured at 404 nm excitation and emission at 526 nm. All experiments were performed four times.

[4] = tested on: mitochondrial membrane permeability transition pore (mPTP) in SH-SY5Y cells; assay: Mitochondrial membrane permeability transition pore (mPTP) measurement, TBHP-induced opening; format: cell-based, human; conditions: 1 mM TBHP
Description: The blockage of mPTP by compounds was determined with the MitoProbe Transition Assay Kit following manufacturer's instructions. Briefly, SH-SY5Y human neuroblastoma cells were re-suspended in pre-warmed PBS/Ca^+2 buffer at a final concentration of 1×10^6 cells/mL. Cells were loaded with 0.01 μM Calcein-AM and incubated at 37° C. for 15 min. Then, 0.4 mM CoCl2 and compounds at selected concentrations were added and incubated for 15 min at 37° C. […] After this incubation, cells were centrifuged and re-suspended in 100 μL of PBS. Just before analyzing, 1 mM tert-butyl hydroperoxide (TBHP) was added to the samples to induce pore opening. Fluorescence intensity was measured at 488 nm excitation and 517 nm emission wavelengths by flow cytometry using the ImageStreamMKII (Amnis Corporation, Merck-Millipore) and […] software. The fluorescence of 10,000 events was analyzed with IDEASR Application vs 6.0 (Amnis Corporation, Merck-Millipore). Experiments were carried out four times.

[5] = molecular target: T1, active human CypA protein (Homo sapiens, UniProt P62937); assay: Binding to immobilized CypA by surface plasmon resonance (SPR); conditions: for immunosuppressive activity (SAR profile, FIG. 2): in words, CypA binding / IL-2 inhibition
T1 construct: Active human CypA full-length protein was from Abcam; purchased Abcam
T1 sequence (P62937 whole entry): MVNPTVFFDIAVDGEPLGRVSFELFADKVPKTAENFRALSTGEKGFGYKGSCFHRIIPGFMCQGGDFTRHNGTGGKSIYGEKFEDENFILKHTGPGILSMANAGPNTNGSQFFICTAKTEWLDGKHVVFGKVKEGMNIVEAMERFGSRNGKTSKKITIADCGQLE
Description: Sensor surface activation and ligand immobilization were performed by using HBS-EP as running buffer at a flow rate of 5 μL/min and 25° C. CM5 sensor chips were used as surface where Cyp A or D was immobilized as ligand. The CM5 chip is a glass slide coated with a thin layer of gold with a matrix of carboxymethylated dextran covalently attached. The CM5 chip was activated using an amine coupling kit. […] After activation, the ligand, 100 μg/mL of active human CypA protein dissolved in sodium acetate 10 mM at pH 4.5 was added to be immobilized over a CM5 sensor chip. Finally ethanolamine-HCl was injected to deactivate the remaining active esters and to avoid non-specific binding. […] Once analytes were tested and interaction was observed, individual binding curves were analyzed by determining the kinetic constants of analytes-CypA binding, namely, the observed rate constant (Kobs), the association rate constant (Kass), the dissociation rate constant (Kdiss), and the kinetic equilibrium dissociation constant (KD). At equilibrium, by definition, […]. The pseudo-first order association rate constants Kobs (s^-1) were determined for each compound concentration by using the 1:1 Langmuir association model of BiaEvaluation software (BiaCore, Uppsala, Sweden). Then a representation of Kobs against the corresponding concentration of each compound was done. […] From the equation of these representations, Kass, M^-1 s^-1, gradient of the plot, and […]^-1, intercept of the plot was obtained. Within these two values, the kinetic equilibrium dissociation constant KD for each analyte-CypA binding was obtained. The duration of the sample injection was 2 min at 10 μL/min flow rate. Next, dissociation of bound molecules in HBS-EP buffer flow was studied. The bound drugs were removed from the chip surface before the next injection by adding 1 M Glycine-HCl at pH 2.5 for 1 min. The association phase was used to quantify the compound-CypA or D interactions. All experiments were performed four times.

Compound | protection of cell viability against H2O2 insult (SH-SY5Y cells [1]) | cytotoxicity toward SH-SY5Y cells (SH-SY5Y cells [2]; 24 h) | IC50 (SH-SY5Y cells [2]; 24 h incubation) | GSH levels (SH-SY5Y cells [3]) | mPTP opening [4] | immunosuppressive activity (SAR profile, FIG. 2) [5] | IC50 (SH-SY5Y cells [2]; 24 h) | Kd ([5]; SPR, immobilized CypA)
CC(=O)O[C@H]1O[C@@H](OC(C)=O)[C@@H]2CC[C@](O)(C3(C)CCCC(C)(C)C3)C[C@H]12 (stereo partly drawn) [Compound 22, (1S,3R,3aS,5R,7aR)-5-hydroxy-5-(1,3,3-trimethylcyclohexyl)octahydroisobenzo-furan-1,3-diyl diacetate] | protected cells against H2O2 insult at almost all concentrations | led to cell death at the higher concentrations tested | 6.5 µM | recovered GSH levels | prevent TBHP-induced opening | inactive |  | 
CC(=O)O[C@@H]1OC[C@H]2C=C(C3(C)CCCCC3)CC[C@@H]12 [Compound 27a, (1S,3aS,7aR)-5-(1-methylcyclohexyl)-1,3,3a,6,7,7a-hexahydroisobenzofuran-1-yl acetate] | protected cells against H2O2 insult at almost all concentrations | led to cell death at the higher concentrations tested |  | recovered GSH levels | prevent TBHP-induced opening | inactive |  | 
CC(=O)O[C@H]1OC[C@@H]2C=C([C@@]3(C)CCCC(C)(C)C3)CC[C@H]12 [Compound 29a, (1R,3aR,7aS)-5-(1,3,3-trimethylcyclohexyl)-1,3,3a,6,7,7a-hexahydroisobenzofuran-1-yl acetate] | protected cells against H2O2 insult at almost all concentrations | led to cell death at the higher concentrations tested |  | recovered GSH levels | prevent TBHP-induced opening |  | 16.5 µM | ~3 µM and 2.8 to 6.8 µM
